From ChEMBL document CHEMBL1649275, “Alterations in two-component regulatory systems of phoPQ and pmrAB are associated with polymyxin B resistance in clinical isolates of Pseudomonas aeruginosa” (2009)
Values after ≈ are worked out from the molar mass of the structure shown.

Assays:
Pseudomonas aeruginosa [1] = experiment: Antibacterial activity against Pseudomonas aeruginosa NY220 by broth dilution method; format: functional
Pseudomonas aeruginosa [2] = experiment: Antibacterial activity against Pseudomonas aeruginosa PAO1 by broth dilution method; format: functional
Pseudomonas aeruginosa [3] = experiment: Antibacterial activity against Pseudomonas aeruginosa NY219 by broth dilution method; format: functional
Pseudomonas aeruginosa [4] = experiment: Antibacterial activity against Pseudomonas aeruginosa NY214 by broth dilution method; format: functional
Pseudomonas aeruginosa [5] = experiment: Antibacterial activity against Pseudomonas aeruginosa NY215 by broth dilution method; format: functional
Pseudomonas aeruginosa [6] = experiment: Antibacterial activity against Pseudomonas aeruginosa NY217 by broth dilution method; format: functional
Pseudomonas aeruginosa [7] = experiment: Antibacterial activity against Pseudomonas aeruginosa NY220 harboring pUCP18 by broth dilution method; format: functional, organism-based
Pseudomonas aeruginosa [8] = experiment: Antibacterial activity against Pseudomonas aeruginosa NY220 harboring arnB::TC by broth dilution method; format: functional, organism-based
Pseudomonas aeruginosa [9] = experiment: Antibacterial activity against Pseudomonas aeruginosa PAO1 harboring Pseudomonas aeruginosa PAO1 deltaoprH-phoPQ::Gm/pAU124 by broth dilution method; format: functional, organism-based
Pseudomonas aeruginosa [10] = experiment: Antibacterial activity against Pseudomonas aeruginosa PAO1 harboring Pseudomonas aeruginosa NY215 deltaoprH-phoPQ::Gm/pAU147 by broth dilution method; format: functional, organism-based
Pseudomonas aeruginosa [11] = experiment: Antibacterial activity against Pseudomonas aeruginosa PAO1 harboring Pseudomonas aeruginosa NY219 deltaoprH-phoPQ::Gm/pAU149 by broth dilution method; format: functional, organism-based
Pseudomonas aeruginosa [12] = experiment: Antibacterial activity against Pseudomonas aeruginosa PAO1 harboring Pseudomonas aeruginosa PAO1 deltapmrAB::Tc/pAU126 by broth dilution method; format: functional, organism-based
Pseudomonas aeruginosa [13] = experiment: Antibacterial activity against Pseudomonas aeruginosa NY219 harboring pUCP18 by broth dilution method; format: functional, organism-based
Pseudomonas aeruginosa [14] = experiment: Antibacterial activity against Pseudomonas aeruginosa PAO1 harboring Pseudomonas aeruginosa NY214 deltaoprH-phoPQ::Gm/pAU146 by broth dilution method; format: functional, organism-based
Pseudomonas aeruginosa [15] = experiment: Antibacterial activity against Pseudomonas aeruginosa NY219 harboring Pseudomonas aeruginosa PAO1 pmrAB gene by broth dilution method; format: functional, organism-based
Pseudomonas aeruginosa [16] = experiment: Antibacterial activity against Pseudomonas aeruginosa NY217 harboring pUCP18 by broth dilution method; format: functional, organism-based
Pseudomonas aeruginosa [17] = experiment: Antibacterial activity against Pseudomonas aeruginosa NY217 harboring Pseudomonas aeruginosa PAO1 pmrAB gene by broth dilution method; format: functional, organism-based
Pseudomonas aeruginosa [18] = experiment: Antibacterial activity against Pseudomonas aeruginosa NY217 harboring Pseudomonas aeruginosa PAO1 phoPQ gene by broth dilution method; format: functional, organism-based
Pseudomonas aeruginosa [19] = experiment: Antibacterial activity against Pseudomonas aeruginosa NY215 harboring pUCP18 by broth dilution method; format: functional, organism-based
Pseudomonas aeruginosa [20] = experiment: Antibacterial activity against Pseudomonas aeruginosa PAO1 harboring arnB::TC by broth dilution method; format: functional, organism-based
Pseudomonas aeruginosa [21] = experiment: Antibacterial activity against Pseudomonas aeruginosa NY214 harboring arnB::TC by broth dilution method; format: functional, organism-based
Pseudomonas aeruginosa [22] = experiment: Antibacterial activity against Pseudomonas aeruginosa PAO1 harboring deltapmrAB::Tc/pUCP18 by broth dilution method; format: functional, organism-based
Pseudomonas aeruginosa [23] = experiment: Antibacterial activity against Pseudomonas aeruginosa NY217 harboring arnB::TC by broth dilution method; format: functional, organism-based
Pseudomonas aeruginosa [24] = experiment: Antibacterial activity against Pseudomonas aeruginosa NY219 harboring Pseudomonas aeruginosa PAO1 phoPQ gene by broth dilution method; format: functional, organism-based
Pseudomonas aeruginosa [25] = experiment: Antibacterial activity against Pseudomonas aeruginosa PAO1 harboring Pseudomonas aeruginosa NY220 deltapmrAB::Tc/pAU154 by broth dilution method; format: functional, organism-based
Pseudomonas aeruginosa [26] = experiment: Antibacterial activity against Pseudomonas aeruginosa NY214 harboring Pseudomonas aeruginosa PAO1 pmrAB gene by broth dilution method; format: functional, organism-based
Pseudomonas aeruginosa [27] = experiment: Antibacterial activity against Pseudomonas aeruginosa PAO1 harboring deltaoprH-phoPQ::Gm by broth dilution method; format: functional, organism-based
Pseudomonas aeruginosa [28] = experiment: Antibacterial activity against Pseudomonas aeruginosa NY215 harboring Pseudomonas aeruginosa PAO1 pmrAB gene by broth dilution method; format: functional, organism-based
Pseudomonas aeruginosa [29] = experiment: Antibacterial activity against Pseudomonas aeruginosa NY215 harboring Pseudomonas aeruginosa PAO1 phoPQ gene by broth dilution method; format: functional, organism-based
Pseudomonas aeruginosa [30] = experiment: Antibacterial activity against Pseudomonas aeruginosa NY220 harboring Pseudomonas aeruginosa PAO1 pmrAB gene by broth dilution method; format: functional, organism-based
Pseudomonas aeruginosa [31] = experiment: Antibacterial activity against Pseudomonas aeruginosa PAO1 harboring deltaoprH-phoPQ::Gm/pUCP18 by broth dilution method; format: functional, organism-based
Pseudomonas aeruginosa [32] = experiment: Antibacterial activity against Pseudomonas aeruginosa PAO1 harboring deltapmrAB::Tc by broth dilution method; format: functional, organism-based
Pseudomonas aeruginosa [33] = experiment: Antibacterial activity against Pseudomonas aeruginosa PAO1 harboring Pseudomonas aeruginosa NY217 deltaoprH-phoPQ::Gm/pAU148 by broth dilution method; format: functional, organism-based
Pseudomonas aeruginosa [34] = experiment: Antibacterial activity against Pseudomonas aeruginosa NY220 harboring Pseudomonas aeruginosa PAO1 phoPQ gene by broth dilution method; format: functional, organism-based
Pseudomonas aeruginosa [35] = experiment: Antibacterial activity against Pseudomonas aeruginosa NY214 harboring pUCP18 by broth dilution method; format: functional, organism-based
Pseudomonas aeruginosa [36] = experiment: Antibacterial activity against Pseudomonas aeruginosa NY215 harboring arnB::TC by broth dilution method; format: functional, organism-based
Pseudomonas aeruginosa [37] = experiment: Antibacterial activity against Pseudomonas aeruginosa NY214 harboring Pseudomonas aeruginosa PAO1 phoPQ gene by broth dilution method; format: functional, organism-based

## CC1(C)S[C@@H]2[C@H](NC(=O)[C@H](NC(=O)N3CCNC3=O)c3ccccc3)C(=O)N2[C@H]1C(=O)O [AZLOCILLIN]
Pseudomonas aeruginosa [1]
  MIC: 16 µg/mL (≈ 34.7 µM)
Pseudomonas aeruginosa [2]
  MIC: 2 µg/mL (≈ 4.33 µM)
Pseudomonas aeruginosa [3]
  MIC: 8 µg/mL (≈ 17.3 µM)
Pseudomonas aeruginosa [4]
  MIC: 8 µg/mL (≈ 17.3 µM)
Pseudomonas aeruginosa [5]
  MIC: 8 µg/mL (≈ 17.3 µM)
Pseudomonas aeruginosa [6]
  MIC: 16 µg/mL (≈ 34.7 µM)

## CC1(C)S[C@@H]2[C@H](NC(=O)C(C(=O)O)c3ccccc3)C(=O)N2[C@H]1C(=O)O (stereo partly specified) [CARBENICILLIN]
Pseudomonas aeruginosa [1]
  MIC: > 256 µg/mL
Pseudomonas aeruginosa [2]
  MIC: 64 µg/mL (≈ 169 µM)
Pseudomonas aeruginosa [3]
  MIC: 256 µg/mL (≈ 677 µM)
Pseudomonas aeruginosa [4]
  MIC: 256 µg/mL (≈ 677 µM)
Pseudomonas aeruginosa [5]
  MIC: 256 µg/mL (≈ 677 µM)
Pseudomonas aeruginosa [6]
  MIC: > 256 µg/mL

## CO/N=C(\C(=O)N[C@@H]1C(=O)N2C(C(=O)O)=C(CSc3nc(=O)c(O)nn3C)CS[C@H]12)c1csc(N)n1 [CEFTRIAXONE]
Pseudomonas aeruginosa [1]
  MIC: 32 µg/mL (≈ 57.7 µM)
Pseudomonas aeruginosa [2]
  MIC: 4 µg/mL (≈ 7.21 µM)
Pseudomonas aeruginosa [3]
  MIC: 32 µg/mL (≈ 57.7 µM)
Pseudomonas aeruginosa [4]
  MIC: 16 µg/mL (≈ 28.9 µM)
Pseudomonas aeruginosa [5]
  MIC: 32 µg/mL (≈ 57.7 µM)
Pseudomonas aeruginosa [6]
  MIC: 16 µg/mL (≈ 28.9 µM)

## O=C(O)c1cn(C2CC2)c2cc(N3CCNCC3)c(F)cc2c1=O [CIPROFLOXACIN]
Pseudomonas aeruginosa [5]
  MIC: 4 µg/mL (≈ 12.1 µM)
Pseudomonas aeruginosa [6]
  MIC: 1 µg/mL (≈ 3.02 µM)

## CCn1cc(C(=O)O)c(=O)c2ccc(C)nc21 [NALIDIXIC ACID]
Pseudomonas aeruginosa [1]
  MIC: > 256 µg/mL
Pseudomonas aeruginosa [2]
  MIC: 64 µg/mL (≈ 276 µM)
Pseudomonas aeruginosa [3]
  MIC: 64 µg/mL (≈ 276 µM)
Pseudomonas aeruginosa [4]
  MIC: > 256 µg/mL
Pseudomonas aeruginosa [5]
  MIC: > 256 µg/mL
Pseudomonas aeruginosa [6]
  MIC: 64 µg/mL (≈ 276 µM)

## CC1(C)S[C@@H]2[C@H](NC(=O)[C@H](C(=O)O)c3ccsc3)C(=O)N2[C@H]1C(=O)O [TICARCILLIN]
Pseudomonas aeruginosa [1]
  MIC: 32 µg/mL (≈ 83.2 µM)
Pseudomonas aeruginosa [2]
  MIC: 8 µg/mL (≈ 20.8 µM)
Pseudomonas aeruginosa [3]
  MIC: 32 µg/mL (≈ 83.2 µM)
Pseudomonas aeruginosa [4]
  MIC: 32 µg/mL (≈ 83.2 µM)
Pseudomonas aeruginosa [5]
  MIC: 32 µg/mL (≈ 83.2 µM)
Pseudomonas aeruginosa [6]
  MIC: 32 µg/mL (≈ 83.2 µM)

## NC[C@H]1O[C@H](O[C@H]2[C@H](O)[C@@H](O[C@H]3O[C@H](CO)[C@@H](O)[C@H](N)[C@H]3O)[C@H](N)C[C@@H]2N)[C@H](N)C[C@@H]1O [TOBRAMYCIN]
Pseudomonas aeruginosa [1]
  MIC: 8 µg/mL (≈ 17.1 µM)
Pseudomonas aeruginosa [2]
  MIC: 0.25 µg/mL (≈ 0.535 µM)
Pseudomonas aeruginosa [3]
  MIC: 2 µg/mL (≈ 4.28 µM)
Pseudomonas aeruginosa [4]
  MIC: 2 µg/mL (≈ 4.28 µM)
Pseudomonas aeruginosa [5]
  MIC: 2 µg/mL (≈ 4.28 µM)
Pseudomonas aeruginosa [6]
  MIC: 1 µg/mL (≈ 2.14 µM)

## GENTAMICIN
Pseudomonas aeruginosa [1]
  MIC: 4 µg/mL
Pseudomonas aeruginosa [2]
  MIC: 0.25 µg/mL
Pseudomonas aeruginosa [3]
  MIC: 4 µg/mL
Pseudomonas aeruginosa [4]
  MIC: 4 µg/mL
Pseudomonas aeruginosa [5]
  MIC: 32 µg/mL
Pseudomonas aeruginosa [6]
  MIC: 4 µg/mL

## POLYMYXIN B
Pseudomonas aeruginosa [7]
  MIC: 8 µg/mL
Pseudomonas aeruginosa [8]
  MIC: 0.5 µg/mL
Pseudomonas aeruginosa [9]
  MIC: 0.25 µg/mL
Pseudomonas aeruginosa [10]
  MIC: 4 µg/mL
Pseudomonas aeruginosa [11]
  MIC: 4 µg/mL
Pseudomonas aeruginosa [12]
  MIC: < 0.25 µg/mL
Pseudomonas aeruginosa [13]
  MIC: 8 µg/mL
Pseudomonas aeruginosa [14]
  MIC: 4 µg/mL
Pseudomonas aeruginosa [15]
  MIC: 1 µg/mL
Pseudomonas aeruginosa [16]
  MIC: 8 µg/mL
Pseudomonas aeruginosa [17]
  MIC: 1 µg/mL
Pseudomonas aeruginosa [18]
  MIC: 1 µg/mL
Pseudomonas aeruginosa [19]
  MIC: 8 µg/mL
Pseudomonas aeruginosa [20]
  MIC: 0.5 µg/mL
Pseudomonas aeruginosa [21]
  MIC: 0.5 µg/mL
Pseudomonas aeruginosa [1]
  MIC: 8 µg/mL
Pseudomonas aeruginosa [2]
  MIC: 0.5 µg/mL
Pseudomonas aeruginosa [22]
  MIC: 0.25 µg/mL
Pseudomonas aeruginosa [23]
  MIC: 0.5 µg/mL
Pseudomonas aeruginosa [24]
  MIC: 1 µg/mL
Pseudomonas aeruginosa [25]
  MIC: 4 µg/mL
Pseudomonas aeruginosa [26]
  MIC: 1 µg/mL
Pseudomonas aeruginosa [27]
  MIC: 0.5 µg/mL
Pseudomonas aeruginosa [3]
  MIC: 8 µg/mL
Pseudomonas aeruginosa [28]
  MIC: 0.5 µg/mL
Pseudomonas aeruginosa [4]
  MIC: 8 µg/mL
Pseudomonas aeruginosa [29]
  MIC: 0.5 µg/mL
Pseudomonas aeruginosa [5]
  MIC: 8 µg/mL
Pseudomonas aeruginosa [30]
  MIC: 8 µg/mL
Pseudomonas aeruginosa [31]
  MIC: 0.25 µg/mL
Pseudomonas aeruginosa [32]
  MIC: 0.25 µg/mL
Pseudomonas aeruginosa [33]
  MIC: 4 µg/mL
Pseudomonas aeruginosa [34]
  MIC: 8 µg/mL
Pseudomonas aeruginosa [35]
  MIC: 8 µg/mL
Pseudomonas aeruginosa [36]
  MIC: 0.5 µg/mL
Pseudomonas aeruginosa [6]
  MIC: 8 µg/mL
Pseudomonas aeruginosa [37]
  MIC: 1 µg/mL
